Test results: patent publication US20180185302A1, “METHODS FOR DOWNREGULATING APOBEC3B” (Regents of the University of Minnesota, priority 2015, published 2018)
“Also recorded” adds a separate entry of the source.

Experiments:
Format in all cases: cell-based, human
[1] = test system: APOBEC3B; assay: inhibitor pretreatment before PMA-induced APOBEC3B upregulation in MCF10A cells (RT-qPCR)
Experimental: PMA is a well-known agonist of PKC, but it also affects other cellular processes. To determine whether APOBEC3B induction by PMA occurs through PKC signal transduction or an alternative mechanism, we leveraged a panel of existing PKC inhibitors that each vary with respect to class selectivity. MCF10A cells were pre-treated for 30 minutes with varying concentrations of the pan-PKC inhibitor Gö6983 (Gschwendt et al., FEBS Lett. 392:77-80, 1996) and then treated for six hours with PMA (25 ng/mL). […] As additional controls, MCF10A cells were pretreated in parallel with the phosphoinositol 3 kinase (PI3K) inhibitor, LY294002, and the mitogen-activated protein kinase kinase (MEK) inhibitor, U0126, prior to PMA induction (FIGS. 2B and 2C).
(§1) For induction experiments, 2.5×10^5 cells were plated in a 6-well plate 1 day prior to drug treatment. PMA was then added to the media and incubated at 37° C. with 5% CO2 for six hours unless otherwise indicated. Cells were harvested, RNA was extracted, and RT-qPCR was performed as previously reported (Refsland et al. 2010, Nucleic Acids Res 38:4274-4284). For experiments utilizing inhibitors, cells were pretreated with inhibitors 30 minutes prior to PMA induction (25 ng/mL). PMA (Thermo Fisher Scientific, Inc., Waltham, Mass.), cyclohexamide (Acros Organics, Thermo Fisher Scientific, Inc., Waltham, Mass.), Gö6983 (Cayman Chemical co., Ann Arbor, Mich.), LY294002 (EMD Chemicals, Merck KGaA, Darmstadt, Germany), U0126 (EMD Chemicals, Merck KGaA, Darmstadt, Germany), AEB071 (Medchemexpress, Monmouth Junction, N.J.), Gö6976 (Enzo Life Sciences, Inc., Farmingdale, N.Y.), BAY 11-7082 (R&D Systems, INc., Minneapolis, Minn.), and MG132 (Thermo Fisher Scientific, Inc., Waltham, Mass.) were stored as recommended. NIKi/Compound 31 was synthesized as described (Li et al., 2013, Bioorganic & Medicinal Chemistry Letters 23:1238-1244).

[2] = test system: APOBEC3B; assay: endogenous APOBEC3B mRNA in cancer cell lines treated with AEB071 (RT-qPCR); settings: 10 μM, 48 hours
Experimental: FIG. 4. The PKC-NFκB pathway drives endogenous APOBEC3B expression in cancer cells. (A) APOBEC3B mRNA levels in representative breast, ovarian, and head/neck cancer cell lines. mRNA expression is reported as the mean of three independent RT-qPCR reactions normalized to TBP (error bars report SD from triplicate assays). (B) Representative PKC inhibitor treated cancer cell line experiment. Each line was treated with AEB071 (10 μM) or vehicle control for 48 hours prior to analysis. The histogram reports APOBEC3B mRNA levels normalized to the vehicle treated control for each line.
Four breast cancer cell lines, four ovarian cancer cell lines, four bladder cancer cell lines, and four head/neck cancer cell lines were analyzed to determine whether the constitutively high levels of endogenous APOBEC3B observed in many human cancer cell lines occurs through the PKC pathway. The selected cell lines expressed a 10-fold range of endogenous APOBEC3B mRNA levels (FIG. 4A).
(§2) Each line was treated for 48 hours with 10 μM AEB071, and then APOBEC3B mRNA and protein levels were quantified by RT-qPCR and immunoblotting. […] This is important since higher concentrations of AEB071 are known to cause cell cycle perturbations and apoptosis in certain cell types.

[3] = test system: APOBEC3B; assay: endogenous APOBEC3B protein in cancer cell lines treated with AEB071 (immunoblot); settings: 10 μM, 48 hours
Experimental: as §2
(§3) The development and validation of the rabbit monoclonal antibody (mAb) against APOBEC3B is as described elsewhere (U.S. Provisional Patent Application No. 62/186,109, filed Jun. 29, 2015). The mAb used (referred to as 5210-87-13) effectively binds endogenous APOBEC3B in a variety of assays. The anti-tubulin antibody was obtained from Covance Inc., Princeton, N.J.

[4] = test system: cancer cell lines; assay: cell cycle and cell viability of cancer cell lines treated with AEB071; settings: 10 μM, 48 hours, data not shown
[5] = test system: APOBEC3B; assay: PMA induction of APOBEC3B mRNA in MCF10A cells (RT-qPCR)
Experimental: (§4) A panel of immortalized normal human epithelial cells lines and breast cancer cell lines was treated with PMA or equal amounts of DMSO as a negative control, and previously validated reverse transcription quantitative PCR (RT-qPCR) assays were used to measure mRNA levels of all eleven human APOBEC family members. APOBEC3B mRNA was induced specifically by PMA treatment of several lines including the immortalized normal breast epithelial cell line MCF10A (FIG. 1A and FIG. 6). Under standard cell culture conditions, MCF10A expresses low levels of APOBEC3B and APOBEC3F, even lower levels of APOBEC3G and APOBEC3H, high levels of APOBEC3C, and undetectable levels of all other APOBEC family members.
(§5) APOBEC3B was induced with as little as 1 ng/mL PMA, and its induction was dose responsive and near maximal at 25 ng/mL PMA (FIG. 1B, histogram). APOBEC3B mRNA levels correlated with a rise in steady-state protein levels as measured by immunoblotting with a rabbit anti-APOBEC3B monoclonal antibody (described in U.S. Provisional Patent Application No. 62/186,109. filed Jun. 29, 2015) and with enzymatic activity as measured by a gel-based single-stranded DNA cytosine deamination assay (FIG. 1B). […] APOBEC3B protein and activity levels lagged shortly behind mRNA levels and persisted through the duration of the time course (FIG. 1C, immunoblot and polyacrylamide gel). APOBEC3B upregulation may be a direct result of signal transduction as the kinetics of upregulation were not affected by simultaneously treating cells with the protein translation inhibitor cyclohexamide (FIG. 1D).
as §1

[6] = test system: APOBEC family members; assay: mRNA levels of other APOBEC family members after PMA (RT-qPCR); settings: MCF10A cells, six hours
Experimental: as §4
For induction experiments, 2.5×10^5 cells were plated in a 6-well plate 1 day prior to drug treatment. PMA was then added to the media and incubated at 37° C. with 5% CO2 for six hours unless otherwise indicated. Cells were harvested, RNA was extracted, and RT-qPCR was performed as previously reported (Refsland et al. 2010, Nucleic Acids Res 38:4274-4284). For experiments utilizing inhibitors, cells were pretreated with inhibitors 30 minutes prior to PMA induction (25 ng/mL). […]

[7] = test system: APOBEC3B; assay: APOBEC3B protein levels by immunoblotting after PMA; settings: MCF10A cells
Experimental: as §5, §3

[8] = test system: APOBEC3B; assay: single-stranded DNA cytosine deaminase activity of whole cell extracts after PMA; settings: MCF10A cell extracts
Experimental: as §5
Deaminase activity assays were performed as previously reported (Vieira et al., 2014, mBio 5(6):e02234-14). In short, 4 pmol of a fluorescently labeled oligo with a single target cytosine (5 -[…]-fluorescein, SEQ ID NO:2) was treated with cell extract containing 0.025 U/rxn UDG (New England BioLabs, Inc., Ipswich, Mass.), UDG buffer, and 1.75 U/rxn RNase A (Qiagen, Hilden, Germany) for two hours. […] Gels were scanned using a FujiFilm Image Reader FLA-7000.

[9] = test system: PKCα (PRKCA); assay: RNA-seq of PKC isoform mRNA in MCF10A cells treated with PMA; settings: PMA vs vehicle
Description: PKCα mRNA levels were unchanged by PMA treatment, consistent with a mechanism by which PMA signals through pre-existing PKCα to ultimately stimulate APOBEC3B transcription (FIG. 2G). PKCα expression was depleted using three independent shRNA-encoding lentiviral constructs. […] Immunoblots confirmed PKCα knockdown and proportional reductions in APOBEC3B (FIG. 21). Altogether, the pharmacologic and genetic approaches provide a strong case for PKCα as the predominant PKC isoform driving PMA-mediated upregulation of APOBEC3B.
(§6) Two sets of MCF10A cells in duplicate were treated every eight hours with media supplemented with PMA or DMSO for 48 hours. At 48 hours, RNA was extracted using an RNeasy Mini Kit (Qiagen, Hilden, Germany). Total RNA was submitted to the University of Minnesota Genomics Center for sequencing on the Illumina HiSeq 2000 platform. Raw reads were analyzed using both DESeq2 (Love et al., 2014, Genome Biol. 15:550) and the Tuxedo suite (Trapnell et al., 2012, Nat Protoc.7:562-578) to identify changes in mRNA expression in PMA treated versus untreated cells.

[10] = test system: RELA, NKB1, RELB and NFKB2; assay: RNA-seq of NFκB subunit mRNA in MCF10A cells treated with PMA; settings: PMA vs vehicle
Experimental: Canonical signaling is known to require IKKβ, whereas non-canonical NFκB signaling is strictly dependent on IKKα-catalyzed phosphorylation of p100. To distinguish between these pathways, MCF10A cells were pretreated with a titration of TPCA-1 concentrations spanning the IC50 values of both proteins, and then PMA was used to induce APOBEC3B upregulation. […] As an additional control, TNFα, which is regulated by the canonical pathway, was analyzed.
as §6

[11] = test system: APOBEC3B promoter region; assay: chromatin immunoprecipitation (ChIP) at the APOBEC3B promoter after PMA; settings: MCF10A cells, PMA 25 ng/mL two hours, ChIP-qPCR
Experimental: We next performed a series of chromatin immunoprecipitation (ChIP) experiments to determine whether the canonical or noncanonical NFκB pathway is responsible for upregulating APOBEC3B. Primer sets were designed for each of the predicted NFκB binding sites near the APOBEC3B transcriptional start site, as well as a control set in the promoter region of NFKIB (FIG. 3E). ChIP was performed for RELA, RELB, RNA POL II (positive control), and isotype matched IgG (negative control) RELA, RELB, and RNA POL II were all bound to the NFKIB promoter following PMA treatment (FIG. 3F and FIG. 3G). In addition, we found RNA POL II strongly bound to the APOBEC3B gene near the transcriptional start site (FIG. 3F and FIG. 3G). We also found RELB bound both near the transcriptional start site and at sites 4 and 5, which are located in intron 2 and too close together to be distinguished by this procedure. Binding also may occur at lower levels at site 3 in intron 1, but the IgG signal was too high to distinguish background from actual binding. These ChIP data strongly implicate the noncanonical NFκB pathway, specifically RELB (and not RELA), in directly inducing APOBEC3B transcription in response to PMA activation of PKC.
MCF10A cells were treated with either DMSO or 25 ng/mL PMA for two hours. […]

## CN1CCN(c2nc(C3=C(c4c[nH]c5ccccc45)C(=O)NC3=O)c3ccccc3n2)CC1 [AEB071, sotrastaurin]
[1]
  potency relative to Gö6983, BIM-1, or Gö6983 in suppressing PMA-induced APOBEC3B: approximately 10 fold
[1]; 30-minute pretreatment with inhibitor, then PMA 25 ng/mL six hours
  suppression of PMA-induced APOBEC3B mRNA induction: inhibited; also recorded: clear dose dependent response
[1]; pretreatment, PMA induced
  concentration that caused complete suppression of APOBEC3B expression: 500 nM
[2]; 16 breast, ovarian, bladder, head/neck cancer cell lines
  cell lines in which APOBEC3B mRNA levels were reduced by more than half: 7/16
[2]; HCC1806 breast cancer cell line
  APOBEC3B mRNA levels: reduced by more than half
[2]; JSQ3 head/neck line
  APOBEC3B mRNA levels: reduced by more than half
[2]; MDA-MB-453 breast cancer cell line
  APOBEC3B mRNA levels: reduced by more than half
[2]; MDA-MB-468 breast cancer cell line
  APOBEC3B mRNA levels: reduced by more than half
[2]; OVCAR5 ovarian cancer cell line
  APOBEC3B mRNA levels: reduced by more than half
[2]; SQ-20B head/neck line
  APOBEC3B mRNA levels: reduced by more than half
[2]; TR146 head/neck line
  APOBEC3B mRNA levels: reduced by more than half
[3]
  changes of APOBEC3B protein levels: largely mirrored the mRNA results
[4]
  effects on the cell cycle or cell viability: No effects on the cell cycle or cell viability

## CCCCCCCCCCCCCC(=O)O[C@@H]1[C@@H](C)[C@@]2(O)[C@@H](C=C(CO)C[C@]3(O)C(=O)C(C)=C[C@@H]23)[C@@H]2C(C)(C)[C@]12OC(C)=O [PMA]
[5]; PMA 25 ng/ml
  time after PMA treatment at which maximal APOBEC3B mRNA levels were observed: by three hours post-treatment
  time after PMA treatment at which significant APOBEC3B mRNA induction was detected: 30 min
[5]; six hours
  PMA concentration at which APOBEC3B induction was near maximal: 25 ng/mL
  lowest PMA concentration that induced APOBEC3B: 1 ng/mL
[6]
  changes in the expression levels of other APOBEC family members: no detectable changes
[7]
  APOBEC3B protein levels: dose-responsive increases
[8]
  APOBEC3B activity levels (DNA cytosine deaminase): dose-responsive increases
[9]
  PKCα mRNA levels: unchanged
[10]
  mRNA levels of NFκB components RELA, NKB1, RELB, NFKB2: unaffected
[11]
  recruitment of RELB and p105/p52 to the APOBEC3B promoter region: specifically and robustly recruited
